From ChEMBL document CHEMBL3351350, “Inhibition of C-terminal truncated PPM1D enhances the effect of doxorubicin on cell viability in human colorectal carcinoma cell line” (2014)
Calls of active or inactive are those of the source. The rule behind the calls is not given here.

Key:
[1] = Cytotoxicity against human HCT116 cells assessed as cell viability at 40 uM after 48 hrs by MTS assay in presence of doxorubicin; type: functional; conditions: HCT-116, 48 h, read-out: Activity
[2] = target: T1, Protein phosphatase 1D (Homo sapiens) (UniProt O15297); test: Inhibition of C-terminal truncated PPM1D in human HCT116 cells assessed as increase in p21 level at 40 uM after 24 to 48 hrs by western blotting in presence of doxorubicin; type: cell-based; conditions: HCT-116
T1 sequence (whole entry): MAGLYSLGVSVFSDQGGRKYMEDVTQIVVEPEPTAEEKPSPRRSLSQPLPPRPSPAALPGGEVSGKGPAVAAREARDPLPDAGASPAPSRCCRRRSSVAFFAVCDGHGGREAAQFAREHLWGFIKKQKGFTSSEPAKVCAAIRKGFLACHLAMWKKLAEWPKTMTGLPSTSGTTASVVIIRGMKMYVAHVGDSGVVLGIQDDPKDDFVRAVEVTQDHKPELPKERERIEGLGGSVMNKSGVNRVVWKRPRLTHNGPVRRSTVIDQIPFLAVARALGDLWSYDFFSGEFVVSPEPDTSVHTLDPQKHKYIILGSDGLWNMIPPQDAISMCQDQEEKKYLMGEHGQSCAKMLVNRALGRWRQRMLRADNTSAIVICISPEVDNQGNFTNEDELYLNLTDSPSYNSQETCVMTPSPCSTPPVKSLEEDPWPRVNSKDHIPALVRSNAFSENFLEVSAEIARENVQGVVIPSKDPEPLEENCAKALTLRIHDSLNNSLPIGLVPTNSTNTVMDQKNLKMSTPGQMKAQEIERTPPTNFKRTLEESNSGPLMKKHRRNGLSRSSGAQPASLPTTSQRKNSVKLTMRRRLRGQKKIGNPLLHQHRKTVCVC

HCT-116 [3] = test: Increase in C-terminal truncated PPM1D level in human HCT116 cells at 40 uM after 24 to 48 hrs by western blotting in presence of doxorubicin; type: functional, cell-based
[4] = target: T1, Protein phosphatase 1D (Homo sapiens); test: Inhibition of C-terminal truncated PPM1D in human HCT116 cells assessed as increase in Ser15 phosphorylated p53 level at 40 uM after 24 to 48 hrs by western blotting in presence of doxorubicin; type: cell-based; conditions: HCT-116
[5] = Cytotoxicity against human HCT116 cells assessed as cell viability at 40 uM after 48 hrs by MTS assay; type: functional; conditions: HCT-116, 48 h, read-out: Activity
[6] = target: T1, Protein phosphatase 1D (Homo sapiens); test: Inhibition of C-terminal truncated PPM1D in human HCT116 cells assessed as increase in Ser15 phosphorylated p53 level at 2 uM after 24 to 48 hrs by western blotting; type: cell-based; conditions: HCT-116
[7] = Cytotoxicity against human HCT116 cells assessed as cell viability at 2 uM after 48 hrs by MTS assay; type: functional; conditions: HCT-116, 48 h, read-out: Activity
A549 [8] = test: Cytotoxicity against human A549 cells assessed as cell viability at 2 uM after 48 hrs by MTS assay; type: functional; conditions: A549, 48 h, read-out: Activity
HCT-116 [9] = test: Cytotoxicity against human HCT116 cells assessed as inhibition of cell viability after 48 hrs by MTS assay; type: functional, cell-based
[10] = target: T1, Protein phosphatase 1D (Homo sapiens); test: Inhibition of C-terminal truncated PPM1D in human HCT116 cells assessed as increase in p21 level at 2 uM after 24 to 48 hrs by western blotting; type: cell-based; conditions: HCT-116
A549 [11] = test: Cytotoxicity against human A549 cells assessed as inhibition of cell viability after 48 hrs by MTS assay; type: functional, cell-based

Structure (SMILES)	viability at 40 µM [1]	inhibition [2]	Activity (HCT-116 [3])	inhibition [4]	viability at 40 µM [5]	inhibition [6]	viability at 2 µM [7]	viability at 2 µM (A549 [8])	inhibition (HCT-116 [9])	inhibition [10]	inhibition (A549 [11])
CC[Si](CC)(CC)O[C@@H]1C[C@H](C)C[C@@H]2[C@@H]1C[C@H](O[Si](C)(C)C(C)(C)C)[C@@H]1[C@](C)(CO)C[C@H](O)C[C@@]21C	26.3%	Active	Active	Active	94.2%						
COc1cccc2c1C(=O)c1c(O)c3c(c(O)c1C2=O)C[C@@](O)(C(=O)CO)C[C@@H]3O[C@H]1C[C@H](N)[C@H](O)[C@H](C)O1 [DOXORUBICIN]						Active	40.7%	5%	Dose-dependent effect	Active	Dose-dependent effect
